From patent US20230066011A1, “PYRROLOPYRIMIDINE DERIVATIVE, AND PHARMACEUTICAL COMPOSITION FOR PREVENTING OR TREATING PROTEIN KINASE-RELATED DISEASE COMPRISING SAME AS ACTIVE INGREDIENT” (VORONOI CO., LTD., priority 2019, published 2023)

What was measured:
SHP-77 = assay: Inhibition of proliferation of SHP-77 cancer cells (Cell Titer-Glo); assay type: cell-based; conditions: Homo sapiens, SHP77, 72 hours
Summary of the method: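 GI50 values derive from Cell Titer-Glo luminescence, measured after a 10-minute room-temperature incubation with the reagent. Before that, cells plated at 2,000 per well in DMEM or RPMI medium were treated for 72 h with compound at 11 final concentrations spanning 10 μM down to 0.000169 μM in threefold steps.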

PYK2 = molecular target: T1, PYK2 (Homo sapiens, UniProt Q14289); assay: ScanMAX Kinase analysis panel, PYK2; assay type: binding; conditions: 1 μM in DMSO; <35% considered inhibitory; read-out: percent control (% control), PYK2
T1 construct: purchased DiscoverX Corp. (commissioned ScanMAX panel service)
T1 sequence (Q14289 whole entry): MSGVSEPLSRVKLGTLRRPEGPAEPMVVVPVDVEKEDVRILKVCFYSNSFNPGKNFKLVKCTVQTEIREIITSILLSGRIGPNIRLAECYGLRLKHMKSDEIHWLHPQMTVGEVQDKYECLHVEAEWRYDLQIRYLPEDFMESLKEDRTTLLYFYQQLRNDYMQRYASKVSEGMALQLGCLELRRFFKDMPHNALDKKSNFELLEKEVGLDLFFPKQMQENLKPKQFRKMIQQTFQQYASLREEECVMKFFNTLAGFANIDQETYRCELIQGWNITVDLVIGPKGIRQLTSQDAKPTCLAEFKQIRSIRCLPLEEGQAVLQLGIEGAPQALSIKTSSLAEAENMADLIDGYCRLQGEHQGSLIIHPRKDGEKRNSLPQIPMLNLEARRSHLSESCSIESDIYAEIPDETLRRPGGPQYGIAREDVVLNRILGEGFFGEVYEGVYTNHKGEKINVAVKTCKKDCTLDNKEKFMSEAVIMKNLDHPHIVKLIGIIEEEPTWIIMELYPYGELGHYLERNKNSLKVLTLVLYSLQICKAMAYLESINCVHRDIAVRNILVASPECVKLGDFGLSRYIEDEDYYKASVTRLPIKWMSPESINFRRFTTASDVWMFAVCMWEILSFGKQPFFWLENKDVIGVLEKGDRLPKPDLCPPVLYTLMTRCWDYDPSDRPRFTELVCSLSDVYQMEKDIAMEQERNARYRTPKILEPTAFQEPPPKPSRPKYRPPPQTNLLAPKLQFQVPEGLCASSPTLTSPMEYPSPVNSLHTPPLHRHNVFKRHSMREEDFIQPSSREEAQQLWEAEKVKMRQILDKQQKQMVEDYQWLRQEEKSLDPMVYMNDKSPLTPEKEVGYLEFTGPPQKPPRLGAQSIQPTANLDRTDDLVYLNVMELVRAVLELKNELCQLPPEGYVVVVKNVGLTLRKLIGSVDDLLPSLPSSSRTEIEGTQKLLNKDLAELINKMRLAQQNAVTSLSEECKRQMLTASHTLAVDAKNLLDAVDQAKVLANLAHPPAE
Experimental: (§1) Specifically, the enzyme (kinase) selectivity of Example compounds 238, 361, 411, 157, 161, 228, and 158 selected from the Example compounds of the present invention was determined by commissioning DiscoverX Corp., and an experiment was performed using a ScanMAX™ Kinase analysis panel. In this case, a concentration of the drug with which the enzymes were treated was 1 μM in DMSO, and the percent control (% control) was defined in the same manner as in the following Expression 1.
(§2) (Example Compound−Positive Control)/(Negative Control−Positive Control)×100 [Expression 1]
(§3) wherein the positive control represents a compound having a percent control of 0%, and the negative control represents DMSO having a percent control of 100%. For the enzyme selectivity of the present invention, it was considered that the compound has an inhibitory activity on each of the enzymes when the percent control for the corresponding enzyme was <35% (i. e., less than 35%).

PHKG2 = molecular target: T2, PHKG2 (Homo sapiens, UniProt P15735); assay: ScanMAX Kinase analysis panel, PHKG2; assay type: binding; conditions: 1 μM in DMSO; <35% considered inhibitory; read-out: percent control (% control), PHKG2
T2 construct: purchased DiscoverX Corp. (ScanMAX Kinase analysis panel, service)
T2 sequence (P15735 1-406): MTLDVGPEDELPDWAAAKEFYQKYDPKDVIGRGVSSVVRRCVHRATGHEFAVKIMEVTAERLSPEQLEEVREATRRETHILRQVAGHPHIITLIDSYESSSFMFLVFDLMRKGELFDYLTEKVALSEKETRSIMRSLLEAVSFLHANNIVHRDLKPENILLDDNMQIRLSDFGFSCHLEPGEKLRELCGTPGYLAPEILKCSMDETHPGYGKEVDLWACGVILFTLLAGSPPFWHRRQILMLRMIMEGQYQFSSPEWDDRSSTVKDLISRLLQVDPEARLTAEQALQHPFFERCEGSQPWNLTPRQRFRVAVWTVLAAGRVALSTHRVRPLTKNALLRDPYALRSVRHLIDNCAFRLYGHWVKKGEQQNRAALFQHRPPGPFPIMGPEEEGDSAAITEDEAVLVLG
Experimental: as §1, §2, §3

LRRK2 = LRRK2 (Homo sapiens, UniProt Q5S007); assay: Kinase HotSpot service (Reaction Biology Corporation), LRRK2; assay type: biochemical; set-up: purchased DiscoverX Corp. (ScanMAX Kinase analysis panel, service); conditions: ATP 10 uM, read-out: LRRK2 IC50 (values indicated by *)
LRRK2, sequence (Q5S007 whole entry): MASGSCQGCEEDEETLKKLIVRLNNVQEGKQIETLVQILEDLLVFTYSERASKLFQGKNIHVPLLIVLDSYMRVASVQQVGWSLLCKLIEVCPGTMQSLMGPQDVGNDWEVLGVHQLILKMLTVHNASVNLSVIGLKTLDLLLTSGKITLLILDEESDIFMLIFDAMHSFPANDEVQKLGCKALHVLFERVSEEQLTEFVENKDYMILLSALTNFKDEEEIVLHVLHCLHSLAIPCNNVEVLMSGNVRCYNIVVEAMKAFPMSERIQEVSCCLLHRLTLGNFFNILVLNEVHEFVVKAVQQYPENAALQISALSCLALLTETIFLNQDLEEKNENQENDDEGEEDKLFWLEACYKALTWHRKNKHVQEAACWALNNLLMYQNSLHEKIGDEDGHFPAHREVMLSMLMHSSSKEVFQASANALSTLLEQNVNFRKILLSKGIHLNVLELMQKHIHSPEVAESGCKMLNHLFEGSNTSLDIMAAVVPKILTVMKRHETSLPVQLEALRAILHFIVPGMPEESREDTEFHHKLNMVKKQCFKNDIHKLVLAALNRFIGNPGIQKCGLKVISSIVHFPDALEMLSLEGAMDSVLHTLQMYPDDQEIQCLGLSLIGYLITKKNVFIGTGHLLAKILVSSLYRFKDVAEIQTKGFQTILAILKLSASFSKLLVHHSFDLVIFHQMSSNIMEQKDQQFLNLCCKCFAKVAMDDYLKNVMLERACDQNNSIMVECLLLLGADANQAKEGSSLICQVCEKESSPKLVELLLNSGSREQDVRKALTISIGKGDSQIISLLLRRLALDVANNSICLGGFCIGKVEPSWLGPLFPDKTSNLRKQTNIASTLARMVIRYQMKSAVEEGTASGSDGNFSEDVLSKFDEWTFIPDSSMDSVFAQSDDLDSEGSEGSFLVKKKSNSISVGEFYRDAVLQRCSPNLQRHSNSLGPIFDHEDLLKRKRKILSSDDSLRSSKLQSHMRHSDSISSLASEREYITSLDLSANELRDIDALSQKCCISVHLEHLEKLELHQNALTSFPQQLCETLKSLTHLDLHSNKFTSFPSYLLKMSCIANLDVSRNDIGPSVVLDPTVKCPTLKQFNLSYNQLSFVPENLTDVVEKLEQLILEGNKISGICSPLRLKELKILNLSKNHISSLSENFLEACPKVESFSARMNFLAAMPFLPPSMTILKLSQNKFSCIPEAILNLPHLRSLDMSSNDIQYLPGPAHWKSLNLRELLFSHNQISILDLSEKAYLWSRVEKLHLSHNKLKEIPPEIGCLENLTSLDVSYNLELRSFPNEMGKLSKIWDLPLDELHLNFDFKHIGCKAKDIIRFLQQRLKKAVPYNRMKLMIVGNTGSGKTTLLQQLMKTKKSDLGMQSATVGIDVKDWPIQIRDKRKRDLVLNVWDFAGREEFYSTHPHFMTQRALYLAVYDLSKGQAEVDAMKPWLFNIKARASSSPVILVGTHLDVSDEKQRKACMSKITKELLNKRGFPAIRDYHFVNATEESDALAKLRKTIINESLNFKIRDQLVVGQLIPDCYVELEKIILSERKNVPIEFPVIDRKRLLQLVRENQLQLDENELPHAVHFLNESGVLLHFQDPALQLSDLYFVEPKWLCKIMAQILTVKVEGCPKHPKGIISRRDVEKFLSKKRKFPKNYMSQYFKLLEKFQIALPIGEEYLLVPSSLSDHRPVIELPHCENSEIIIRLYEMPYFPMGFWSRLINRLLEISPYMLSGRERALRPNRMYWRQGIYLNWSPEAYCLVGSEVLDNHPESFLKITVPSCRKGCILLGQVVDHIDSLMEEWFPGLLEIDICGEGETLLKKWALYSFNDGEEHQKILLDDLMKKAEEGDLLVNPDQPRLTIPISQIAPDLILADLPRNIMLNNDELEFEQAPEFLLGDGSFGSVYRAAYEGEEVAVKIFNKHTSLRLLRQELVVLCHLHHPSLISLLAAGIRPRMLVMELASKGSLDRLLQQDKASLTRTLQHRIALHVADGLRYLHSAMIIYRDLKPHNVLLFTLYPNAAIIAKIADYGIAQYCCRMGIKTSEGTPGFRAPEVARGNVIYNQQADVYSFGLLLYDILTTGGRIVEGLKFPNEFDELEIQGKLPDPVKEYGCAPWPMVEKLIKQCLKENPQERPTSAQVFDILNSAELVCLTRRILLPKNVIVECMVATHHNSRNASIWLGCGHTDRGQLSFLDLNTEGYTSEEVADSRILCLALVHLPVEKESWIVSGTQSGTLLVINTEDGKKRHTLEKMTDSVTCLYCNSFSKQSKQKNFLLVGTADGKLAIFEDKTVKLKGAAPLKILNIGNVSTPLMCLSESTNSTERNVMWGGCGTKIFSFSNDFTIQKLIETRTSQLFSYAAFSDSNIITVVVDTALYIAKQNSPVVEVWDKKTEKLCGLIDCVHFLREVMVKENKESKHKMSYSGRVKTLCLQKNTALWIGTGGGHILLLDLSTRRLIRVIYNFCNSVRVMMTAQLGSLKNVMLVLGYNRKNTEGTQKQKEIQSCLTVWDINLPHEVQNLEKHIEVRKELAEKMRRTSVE
Experimental: (§4) The inhibitory activities of the compounds were measured at a 3-fold concentration gradient starting from a maximum compound concentration of […], and the values measured using the Kinase HotSpot service (Reaction Biology Corporation) are indicated by an asterisk (*).
(§5) All the experimental methods were performed as provided by the Kinase HotSpot Customer Protocol (http://www.reactionbiology.com//Kinase_Assay_Protocol).

DYRK1 = DYRK1 (Homo sapiens, UniProt Q13627); assay: Kinase HotSpot service (Reaction Biology Corporation), DYRK1; assay type: biochemical; conditions: ATP 10 uM, read-out: DYRK1 IC50 (values indicated by *)
Experimental: as §4, §5

CLK1 = molecular target: T3, CLK1 (Homo sapiens, UniProt P49759); assay: Kinase HotSpot service (Reaction Biology Corporation), CLK1; assay type: biochemical; conditions: ATP 10 uM, read-out: CLK1 IC50 (values indicated by *)
T3 construct: purchased DiscoverX Corp. (ScanMAX Kinase analysis panel, service)
T3 sequence (P49759 whole entry): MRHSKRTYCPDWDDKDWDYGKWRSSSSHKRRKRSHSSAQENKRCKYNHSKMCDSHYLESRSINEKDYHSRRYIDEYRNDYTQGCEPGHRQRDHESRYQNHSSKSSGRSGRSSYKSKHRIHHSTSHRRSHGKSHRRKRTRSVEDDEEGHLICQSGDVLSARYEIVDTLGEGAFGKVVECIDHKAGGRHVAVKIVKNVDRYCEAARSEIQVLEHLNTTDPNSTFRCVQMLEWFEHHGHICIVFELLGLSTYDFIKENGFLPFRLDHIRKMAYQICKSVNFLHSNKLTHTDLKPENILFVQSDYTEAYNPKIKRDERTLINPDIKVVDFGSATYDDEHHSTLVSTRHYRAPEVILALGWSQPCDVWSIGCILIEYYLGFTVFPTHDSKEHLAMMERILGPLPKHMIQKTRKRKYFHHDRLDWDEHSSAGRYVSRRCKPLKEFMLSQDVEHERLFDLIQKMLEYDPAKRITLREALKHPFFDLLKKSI
Experimental: as §4, §5

THP-1 cells = assay: THP-1 GI50 (Table 4, cytokine secretion experiment); assay type: cell-based; conditions: Homo sapiens

Structure (SMILES): CNc1nc(Nc2ccc(S(=O)(=O)N3CCC(N4CCOCC4)CC3)cc2OC)nc2[nH]cc(C(F)(F)F)c12 [Example 157, N^2-(2-methoxy-4-((4-morpholinopiperidin-1-yl)sulfonyl)phenyl)-N^4-methyl-5-(trifluoromethyl)-7H-pyrrolo[2,3-d]pyrimidine-2,4-diamine 2,2,2-trifluoroacetate]
- GI50 (SHP-77): 301 to 1000 nM
- remaining binding at 1 µM (PYK2): 5.5%
- remaining binding at 1 µM (PHKG2): 5.8%
- IC50 (LRRK2): < 0.1 µM

Structure (SMILES): CCNc1nc(Nc2ccc(S(=O)(=O)N3CCC(N4CCOCC4)CC3)cc2OC)nc2[nH]cc(C(F)(F)F)c12 [Example 158, N^4-ethyl-N^2-(2-methoxy-4-((4-morpholinopiperidin-1-yl)sulfonyl)phenyl)-5-(trifluoromethyl)-7H-pyrrolo[2,3-d]pyrimidine-2,4-diamine 2,2,2-trifluoroacetate]
- GI50 (SHP-77): 51 to 100 nM
- remaining binding at 1 µM (PYK2): 3%
- remaining binding at 1 µM (PHKG2): 51%
- IC50 (DYRK1): < 0.1 µM

Structure (SMILES): CCCNc1nc(Nc2ccc(S(=O)(=O)N3CCC(N4CCOCC4)CC3)cc2OC)nc2[nH]cc(C(F)(F)F)c12 [Example 161, N^2-(2-methoxy-4-((4-morpholinopiperidin-1-yl)sulfonyl)phenyl)-N^4-propyl-5-(trifluoromethyl)-7H-pyrrolo[2,3-d]pyrimidine-2,4-diamine]
- GI50 (SHP-77): 301 to 1000 nM
- remaining binding at 1 µM (PYK2): 1.3%
- IC50 (CLK1): < 0.1 µM
- remaining binding at 1 µM (PHKG2): 21%
- IC50 (DYRK1): < 0.1 µM

Structure (SMILES): COc1cc(S(=O)(=O)N2CCOCC2)ccc1Nc1nc(C2CC2)c2c(C#N)c[nH]c2n1 [Example 223, 4-cyclopropyl-2-((2-methoxy-4-(morpholinosulfonyl)phenyl)amino)-7H-pyrrolo[2,3-d]pyrimidine-5-carbonitrile]
- IC50 (DYRK1): 0.101 to 0.3 µM

Structure (SMILES): COc1cc(S(=O)(=O)N2CCC(N3CCOCC3)CC2)ccc1Nc1nc(C2CC2)c2c(C#N)c[nH]c2n1 [Example 224, 4-cyclopropyl-2-((2-methoxy-4-((4-morpholinopiperidin-1-yl)sulfonyl)phenyl)amino)-7H-pyrrolo[2,3-d]pyrimidine-5-carbonitrile]
- IC50 (DYRK1): < 0.1 µM

Structure (SMILES): COc1cc(S(=O)(=O)N2CCC(N3CCOCC3)CC2)ccc1Nc1nc(C2CC2)c2c(C(F)(F)F)c[nH]c2n1 [Example 226]
- IC50 (DYRK1): < 0.1 µM

Structure (SMILES): O=C(c1ccc(Nc2nc(C3CC3)c3c(C(F)(F)F)c[nH]c3n2)c2c1OCCO2)N1CCC(N2CCOCC2)CC1 [Example 228, (8-((4-cyclopropyl-5-(trifluoromethyl)-7H-pyrrolo[2,3-d]pyrimidin-2-yl)amino)-2,3-dihydrobenzo[b][1,4]dioxin-5-yl)(4-morpholinopiperidin-1-yl)methanone]
- remaining binding at 1 µM (PYK2): 22%
- remaining binding at 1 µM (PHKG2): 5.5%
- IC50 (DYRK1): < 0.1 µM

Structure (SMILES): CNc1nc(Nc2ccc(C(=O)N3CCC(N4CCOCC4)CC3)c3c2OCCO3)nc2[nH]cc(C(F)(F)F)c12 [Example 238, (8-((4-(methylamino)-5-(trifluoromethyl)-7H-pyrrolo[2,3-d]pyrimidin-2-yl)amino)-2,3-dihydrobenzo[b][1,4]dioxin-5-yl)(4-morpholinopiperidin-1-yl)methanone]
- remaining binding at 1 µM (PYK2): 5.2%
- remaining binding at 1 µM (PHKG2): 2.2%

Structure (SMILES): CCN1CCP(=O)(c2ccc(Nc3nc(C4CC4)c4c(C#N)c[nH]c4n3)c(OC)c2)CC1 [Example 261]
- IC50 (DYRK1): < 0.1 µM

Structure (SMILES): COCCNc1nc(Nc2ccc(C(=O)N3CCC(N4CCOCC4)CC3)c3c2OCC3)nc2[nH]cc(C#N)c12 [Example 359, 4-((2-methoxy-ethyl)ami-no)-2-((4-(4-morpholino-piperidine-1-carbonyl)-2,3-dihydro-benzofuran-7-yl)amino)-7H-pyrrolo[2,3-d]pyrimidine-5-carbonitrile]
- GI50 (THP-1 cells): 13.6 µM

Structure (SMILES): C=CCNc1nc(Nc2ccc(S(=O)(=O)N3CCC(N4CCOCC4)CC3)cc2OC)nc2[nH]cc(C#N)c12 [Example 361, 4-(allylamino)-2-((2-methoxy-4-((4-morpholino-piperidin-1-yl)sulfonyl)phenyl)amino)-7H-pyrrolo[2,3-d]pyrimidine-5-carbonitrile]
- remaining binding at 1 µM (PYK2): 2.2%
- remaining binding at 1 µM (PHKG2): 3%

Structure (SMILES): COCCNc1nc(Nc2ccc(C(=O)N3CCN(C4COC4)CC3)c3c2OCCO3)nc2[nH]cc(C(F)(F)F)c12 [Example 403, (8-((4-((2-methoxyethyl)-amino)-5-(trifluoromethyl)-7H-pyrrolo[2,3-d]pyrimidin-2-yl)amino)-2,3-dihydrobenzo[b] [1,4]dioxin-5-yl) (4-(oxetan-3-yl)piperazin-1-yl)methanone]
- GI50 (THP-1 cells): 40.4 µM

Structure (SMILES): CNc1nc(Nc2ccc(P3(=O)CCN(C4CC4)CC3)cc2OC)nc2[nH]cc(C(F)(F)F)c12 [Example 411, 1-cyclopropyl-4-(3-methoxy-4-((4-(methylamino)-5-(trifluoromethyl)-7H-pyrrolo[2,3-d]pyrimidin-2-yl)amino)phenyl)-1,4-azaphosphinane-4-oxide]
- remaining binding at 1 µM (PYK2): 13%
- remaining binding at 1 µM (PHKG2): 2.5%

Structure (SMILES): O=C(c1ccc(Nc2nc(NC3CCCC3)c3c(C(F)(F)F)c[nH]c3n2)c2c1OCCO2)N1CCN(C2COC2)CC1 [Example 414, (8-((4-(cyclopentyl-amino)-5-(trifluoromethyl)-7H-pyrrolo[2,3-d]pyrimidin-2-yl)amino)-2,3-dihydrobenzo[b] [1,4]dioxin-5-yl) (4-(oxetan-3-yl)piperazin-1-yl)methanone]
- GI50 (THP-1 cells): 4.16 µM

Structure (SMILES): COc1cc(S(=O)(=O)N2CCC(N3C[C@H]4C[C@@H]3CO4)CC2)ccc1Nc1nc(C2CC2)c2c(C(F)(F)F)c[nH]c2n1 [Example 473, N-(4-((4-((1R,4R)-2-oxa-5-azabicyclo[2.2.1]heptan-5-yl)piperidin-1-yl)sulfonyl)-2-methoxyphenyl)-4-cyclopropyl-5-(trifluoromethyl)-7H-pyrrolo[2,3-d]pyrimidin-2-amine]
- IC50 (CLK1): < 0.1 µM
- IC50 (LRRK2): < 0.1 µM
- IC50 (DYRK1): < 0.1 µM
